# Source: patent US20240408064A1, “RAS INHIBITORS, COMPOSITIONS AND METHODS OF USE THEREOF” (GENETOLEAD INC., priority 2021, published 2024)
# Key:
# [1] = target: T1, HRas^G12V (Homo sapiens (Human), UniProt P01112, G12V); assay: Overall binding/activity in the various assays (NMR consensus binding)
# Description: (§1) Since the fragment library was curated using phosphate buffer, 25 mM sodium phosphate pH 7.4, 150 mM NaCl, 5 mM MgCl2, 1 mM TCEP-d16, 10% D2O Fresh TCEP was used for experiments. Screening was performed using ^1H-decoupled 1D ^19F experiment Bruker experiment (zgfhigqn.2) with 64 scans and a relaxation delay of 5 seconds. 50 μM HRas^G12V and 240 μM of each fragment in pools (mixtures) were used.
# (§2) Hit confirmation was performed using the same ^19F experiment as the screen. Ligand-observed 1D ^1H, protein-observed 1D ^1H, ^1H T2-CPMG as well as Saturation Transfer Difference (STD) experiments were also run on the same samples. Ligand-observed 1D ^1H was run using the standard Bruker sequence with excitation sculpting (zgesgp) with a relaxation delay of 10 seconds and 16 scans per spectrum. Protein-observed 1D ^1H was performed using the same sequence with a relaxation delay of 1 second and 256 scans in order to increase the signal-to-noise of the protein resonances, while keeping the experimental time relatively short. The ^1H T2-CPMG experiment employed a modified version of the Bruker 1D ^1H zgesgp experiment with the addition of a CPMG pulse train after the first 90° excitation pulse. Total duration for each spin echo was fixed at 1 ms (τ=500 μs), while the number of echoes in the pulse train was varied according to the total time (T). The number of scans for each spectrum was 4 and eight delay times were run on each sample, ranging from 1 ms to 800 ms.
# STD experiments consisted of two independent spectra with offsets of 0 ppm (on resonance) and −20 ppm (off resonance). […] 160 scans were acquired for each spectrum.
# The results obtained with the compounds in the various assays described above are depicted in Table 21.
# Because of its power to probe the intrinsically weak interactions (Kd) between targets and low-molecular weight fragments, NMR fragment-based lead discovery (FBLD) is a very useful biophysical method in early stage drug discovery, especially for challenging target proteins; including those with shallow binding pockets. Since FBLD screens are performed using low-molecular weight compounds (fragments) with lower structural complexity, the same chemical space can be covered using a smaller number of drug-like fragments versus use of large libraries of higher-molecular weight lead-like compounds as in high throughput screening (HTS) campaigns. Therefore, FBLD has a much higher hit rate than HTS using only several hundred to several thousand compounds in comparison with approximately 1 million compounds for HTS. Also, the small size of the compounds screened in FBLD means a better chance to fully match the interactions with small or transient pockets within the target protein, where these less tractable pockets cannot be accessed with standard classical HTS methods. […] We expect this methodology to be more advantageous than classical HTS methods for expediting the time from hit to lead (H2L) and allows for rapid access to high quality leads with lower attrition rates in subsequent lead optimization (LO) campaigns toward pre-clinical candidate selection. FBLD screening by NMR involves a “consensus binding” approach where several distinct NMR experiments (DLB, STD, CPMG) are applied along with a free-state aggregation detection method (T2-CPMG) to rank the compounds for their affinity to the receptor (HRAS in this case) whilst simultaneously monitoring the solution behavior and critical quality attributes of each compound. The latter helps to eliminate artifact binders which are highly problematic. We performed a fluorine screen involving 461 compounds that were derived from a highly curated fragment library. Moreover, two-dimensional ^15N HSQC NMR was also used to validate ligand-binding sites on the target protein. In addition, we employed protein-detected biophysical measurements were employed to determine fragment binding affinities to the target protein (Kd) by HSQC NMR. […]
# [2] = target: T1, HRas^G12V; assay: 19F T2-CPMG NMR score; format: binding
# Description: (§3) All NMR experiments were collected using 3 mm NMR tubes on a 600 MHz Bruker Avance III spectrometer equipped with a QCI helium cryoprobe and a SampleJet sample changer. The buffer used for NMR experiments was 25 mM sodium phosphate pH 7.4, 150 mM NaCl, 5 mM MgCl2, 1 mM TCEP-d16, 10% D2O. Data were processed using Bruker TopSpin.
# as §1, §2
# Because of its power to probe the intrinsically weak interactions (Kd) between targets and low-molecular weight fragments, NMR fragment-based lead discovery (FBLD) is a very useful biophysical method in early stage drug discovery, especially for challenging target proteins; including those with shallow binding pockets. Since FBLD screens are performed using low-molecular weight compounds (fragments) with lower structural complexity, the same chemical space can be covered using a smaller number of drug-like fragments versus use of large libraries of higher-molecular weight lead-like compounds as in high throughput screening (HTS) campaigns. Therefore, FBLD has a much higher hit rate than HTS using only several hundred to several thousand compounds in comparison with approximately 1 million compounds for HTS. Also, the small size of the compounds screened in FBLD means a better chance to fully match the interactions with small or transient pockets within the target protein, where these less tractable pockets cannot be accessed with standard classical HTS methods. […] We expect this methodology to be more advantageous than classical HTS methods for expediting the time from hit to lead (H2L) and allows for rapid access to high quality leads with lower attrition rates in subsequent lead optimization (LO) campaigns toward pre-clinical candidate selection. FBLD screening by NMR involves a “consensus binding” approach where several distinct NMR experiments (DLB, STD, CPMG) are applied along with a free-state aggregation detection method (T2-CPMG) to rank the compounds for their affinity to the receptor (HRAS in this case) whilst simultaneously monitoring the solution behavior and critical quality attributes of each compound. The latter helps to eliminate artifact binders which are highly problematic. We performed a fluorine screen involving 461 compounds that were derived from a highly curated fragment library. Moreover, two-dimensional ^15N HSQC NMR was also used to validate ligand-binding sites on the target protein. […]
# [3] = target: T1, HRas^G12V; assay: 19F DLB (ligand-observed 19F NMR) score; format: binding; parameters: scale not given here
# Description: as §3, §1
# as §2, with “ms. […]” for “ms.”
structure (smiles),measurement,setting,value
CN1CCC[C@H]1C(=O)NCCc1c[nH]c2cc(F)ccc12 [Compound 10036],Binding to HRas^G12V (in words),[1],low or no binding
same,19F T2-CPMG Score,[2],2.32
same,19F DLB Score,[3],1.22
CCOC(=O)C(Cc1c[nH]c2ccccc12)NC(=O)Cc1c[nH]c2cc(F)ccc12 (centres unmarked) [Compound 10112],Binding to HRas^G12V (in words),[1],low or no binding
CN(C)CC(=O)Nc1cccc(NC(=O)Cc2c[nH]c3c(Cl)cccc23)c1 [Compound 11070],Binding to HRas^G12V (in words),[1],low or no binding
COc1ccc(NC(=O)Cc2c[nH]c3cc(F)ccc23)cc1OC [Compound 10033],Binding to HRas^G12V (in words),[1],low or no binding
CN(C)CC(=O)Nc1cccc(NC(=O)Cc2c[nH]c3cc(Cl)ccc23)c1 [Compound 11068],Binding to HRas^G12V (in words),[1],low or no binding
Cc1c(Cl)cc(NC(=O)Cc2c[nH]c3cc(F)ccc23)cc1Cl [Compound 10022],Binding to HRas^G12V (in words),[1],low or no binding
O=C(O)CC(c1ccc(O)cc1)c1c[nH]c2cc(F)ccc12 (centres unmarked) [Compound 11055],Activity ranking on HRas^G12V (in words),[1],More active
same,19F DLB Score,[3],Non conclusive
"O=C(O)C[C@H](c1ccccc1F)c1c[nH]c2cc(F)ccc12 (single isomer, unassigned) [Compound 11052]",Activity ranking on HRas^G12V (in words),[1],More active
same,19F DLB Score,[3],Non conclusive
CN(C)CC(=O)Nc1cccc(NC(=O)Cc2c[nH]c3cccc(Cl)c23)c1 [Compound 11071],Binding to HRas^G12V (in words),[1],low or no binding
Cc1ccc(NC(=O)Cc2c[nH]c3cc(F)ccc23)cc1Cl [Compound 10032],Binding to HRas^G12V (in words),[1],low or no binding
O=C(O)Cc1c[nH]c2c(Cl)cccc12 [Compound 11069],Binding to HRas^G12V (in words),[1],low or no binding
O=C(O)CC(c1cccc(O)c1)c1c[nH]c2cc(F)ccc12 (centres unmarked) [Compound 11054],Activity ranking on HRas^G12V (in words),[1],More active
same,19F DLB Score,[3],Non conclusive
CCOC(=O)CC(c1ccccc1F)c1c[nH]c2cc(F)ccc12 (centres unmarked) [Compound 11045],Binding to HRas^G12V (in words),[1],low or no binding
same,19F DLB Score,[3],16.69
CC1(C)OC(=O)C(C(c2ccc(F)cc2F)c2c[nH]c3cc(F)ccc23)C(=O)O1 (centres unmarked) [Compound 11058],Binding to HRas^G12V (in words),[1],low or no binding
same,19F DLB Score,[3],Non conclusive
"CC(=O)N[C@H]1CCCN(C(=O)Cc2c[nH]c3cc(F)ccc23)C1 [Compound 10139, (S)—N-(1-(2-(6-fluoro-1H-indol-3-yl)acetyl)piperidin-3-yl) acetamide]",19F T2-CPMG Score,[2],4.54
same,19F DLB Score,[3],1.93
"CN1CCC(NC(=O)Cc2c[nH]c3cc(F)ccc23)C(C(=O)O)C1 (centres unmarked) [Compound 10117, 4-(2-(6-fluoro-1H-indol-3-yl)acetamido)-1-methylpiperidine-3-carboxylic acid]",19F T2-CPMG Score,[2],10.14
same,19F DLB Score,[3],1.54
CCOC(=O)[C@@H]1CCCCN1C(=O)Cc1c[nH]c2cc(F)ccc12 [Compound 10126],19F T2-CPMG Score,[2],13.7
same,19F DLB Score,[3],4.22
COc1ccccc1C(=O)NCCc1c[nH]c2cc(F)ccc12 [Compound 10043],Binding to HRas^G12V (in words),[1],low or no binding
O=C(c1ccc(F)cc1F)N1CCC(c2c[nH]c3cc(F)ccc23)C1 (centres unmarked) [Compound 11018],19F T2-CPMG Score,[2],9.96
same,19F DLB Score,[3],2.51
"COC(=O)C1CN(C(=O)Cc2c[nH]c3cc(F)ccc23)C1 [Compound 10087, methyl 1-(2-(6-fluoro-1H-indol-3-yl)acetyl) azetidine-3-carboxylate]",19F T2-CPMG Score,[2],13.65
same,19F DLB Score,[3],2.16
"O=C1C[C@H](c2c[nH]c3cc(F)ccc23)C(=O)N1 (single isomer, unassigned) [Compound 11039]",19F T2-CPMG Score,[2],39.34
same,19F DLB Score,[3],3.59
CN1CCN(C(=O)Cc2c[nH]c3cc(F)ccc23)CC1 [Compound 10065],19F T2-CPMG Score,[2],22.6
same,19F DLB Score,[3],2.88
COC(=O)[C@@H]1CN(C)CCN1C(=O)Cc1c[nH]c2cc(F)ccc12 [Compound 10167],19F T2-CPMG Score,[2],5.07
same,19F DLB Score,[3],3.62
O=C1CN(C(=O)Cc2c[nH]c3cc(F)ccc23)CCN1 [Compound 10145],19F T2-CPMG Score,[2],16.13
same,19F DLB Score,[3],1.64
"CC1CN(C(=O)Cc2n[nH]c3cc(F)ccc23)C1 [Compound 10144, 2-(6-fluoro-1H-indazol-3-yl)-1-(3-methylazetidin-1-yl)ethan-1-one]",19F T2-CPMG Score,[2],9.44
same,19F DLB Score,[3],1.93
COC(=O)c1ccc(NC(=O)Cc2c[nH]c3cc(F)ccc23)cc1Cl [Compound 10017],Binding to HRas^G12V (in words),[1],low or no binding
CN(C)CC(=O)Nc1cccc(NC(=O)Cc2c[nH]c3cccc(Br)c23)c1 [Compound 11067],Binding to HRas^G12V (in words),[1],low or no binding
CCOC(=O)c1cccc(NC(=O)Cc2c[nH]c3cc(F)ccc23)c1 [Compound 10019],Binding to HRas^G12V (in words),[1],low or no binding
"COCCOC1CN(C(=O)Cc2c[nH]c3cc(F)ccc23)C1 [Compound 10103, 2-(6-fluoro-1H-indol-3-yl)-1-(3-(2-methoxyethoxy)azetidin-1-yl) ethan-1-one]",19F T2-CPMG Score,[2],7.82
same,19F DLB Score,[3],1.62
